Assay results: article PMC8070284, “Pharmacokinetic Characterization of LW6, a Novel Hypoxia-Inducible Factor-1α (HIF-1α) Inhibitor in Mice” (Molecules, 2021)
Read-outs that look alike come from different tables or passages of the source. One block for each molecule: values may come before it.

Key:
[1] = In vivo plasma pharmacokinetics after a single i.v. or p.o. dose in male ICR mice; set-up: species or system mouse; conditions: for half-life / Vd: male, ICR; for half-life / Vd / MRT / clearance: iv; for Cmax / Tmax: po
Description: The animal experiments conducted in this study were approved by the Institutional Animal Care and Use Committee of the Korea Research Institute of Bioscience and Biotechnology (Chung-buk, Korea; KRIBB-AEC-15005, 9 January 2015) and performed in compliance with the National Institutes of Health Guidelines for the care and use of laboratory animals and Korean national laws for ethical conduct in the care and use of animals. Specific pathogen-free (SPF) male ICR mice (8 weeks old) were purchased from Koatech Co. (Pyeongtaek, Kyonggi, Republic of Korea) and maintained in an SPF environment at a temperature of 22 ± 2 °C with a 12-h light/dark cycle and a relative humidity of 50 ± 10%. Food and water were given ad libitum. Animals were allowed to acclimatize to the testing facility for a week before being used in the study. Animal group for oral administration was fasted overnight before the study and fed again 4 h after dosing. Mice were given a single dose of test substance intravenously (i.v.) via tail vein injection or orally (p.o.) by a disposable syringe with an oral zonde. While LW6 was administered i.v. (5 mg/kg) or p.o. (5 mg/kg), APA was administered only i.v. (5 mg/kg). The solutions were prepared in dimethylacetamide/Cremophor EL/20% v/v 2-hydroxypropyl β-cyclodextrin in de-ionized water (1/1/3 v/v; i.v. or p.o. for LW6) or ethanol/20% v/v 2-hydroxypropyl β-cyclodextrin in de-ionized water (1/9 v/v; i.v. for APA) and administered at a dose volume of 5 mL/kg for both i.v. and p.o. Blood samples were collected via saphenous vein without the use of anesthesia as described in the earlier methodology study at the time points including 0, 0.25, 0.5, 0.75, 1, 2, 4, 6, 8, and 24 h after oral administration or 0, 0.083, 0.167, 0.25, 0.5, 1, 2, 4, 6, 8, and 24 h after intravenous administration. These samples were collected into Microvette® capillary tubes at predetermined time points. The blood samples were centrifuged under refrigeration at 12,000× g for 3 min and then kept frozen at −20 °C until analysis.
Plasma samples were prepared for analysis by the protein precipitation method. An aliquot of 15 µL from each plasma sample was transferred to a PCR tube (Axygen, Union City, CA, USA). Four volumes of acetonitrile containing the analytical internal standard (IS) 4-methylumbelliferone were added and the resulting mixture was vortexed for 10 min on a Multi-Tube vortexer (VWR International, West Chester, PA, USA), and sonicated for 30 min at room temperature. The tube was centrifuged at 12,000× g for 10 min and the supernatant was analyzed for the test substance. Sample analysis was performed by 3200 Q TRAP LC-MS/MS system (Applied Biosystems, Concord, ON, Canada) in a negative MRM mode. The analytical methods are described below.
Pharmacokinetic parameters were calculated by noncompartmental analysis of the plasma concentration-time profiles using Kinetica^TM 4.4.1 (Thermo Fisher Scientific, Inc., Woburn, MA, USA). The areas under the plasma concentration–time curves (AUC) were calculated by the linear-trapezoidal method. Total body clearance (CL) was calculated as follows: CL = Dose/AUC0–inf. Terminal elimination half-life (t1/2) was calculated by the following equation: t1/2 = 0.693/λz, where λz is the terminal disposition rate constant. Volume of distribution at steady state (Vss) was calculated as follows: Vss = CL × AUMC0–inf/AUC0–inf, where AUMC0–inf is the area under the first moment of the plasma concentration-time curve extrapolated to infinity. Oral bioavailability (F) was calculated using the following equation:(1) F=(AUCpo/Dosepo)/(AUCiv/Doseiv)×100
Fraction of dose converted to a systemically available metabolite was calculated by the following equation, where D is the dose of the parent, AUC(m) is the area under the curve of metabolite, and CL(m) is the systemic clearance of metabolite:(2) % of dose = AUC(m) ×CL(m)/D×parent mol. wt./metabolite mol. wt. ×100 […]

HCT116 xenograft = HCT116 xenograft model study; type: in vivo; conditions: data not shown
[2] = Metabolic stability in pooled mouse liver microsomes; type: in vitro ADME
Experimental: LW6 (1 µM) was incubated with pooled mouse liver microsomes (0.5 mg/mL) in the absence or presence of NADPH (1 mM) to determine its conversion to APA. LW6 was degraded slowly in the absence or presence of NADPH, with 63% or 65% remaining after 60 min microsomal incubations, respectively (Figure 3A). […] APA, following its formation, gradually disappeared from the microsomal incubation media only in the presence of NAPDH (Figure 3A). To determine whether APA was metabolized by cytochrome P450 (CYP450), APA (1 µM) also was incubated with pooled male mouse liver microsomes (0.5 mg/mL) in the absence or presence of NADPH (1 mM).
All incubations were conducted in triplicate at 37 °C in eight-well tube strips placed in an 8 × 12 rack (VWR, Emeryville, CA). Incubation mixtures consisted of mouse liver microsomes (0.5 mg protein/mL), NADPH (1 mM), and LW6 (1 µM) or APA (1 µM) in 0.1 M potassium phosphate buffer (pH 7.4). The final incubation volume was 160 µL and the final acetonitrile content was 1%. Samples were preincubated for 5 min at 37 °C before adding LW6 or APA to initiate the reaction. The reaction was terminated at 0, 5, 15, 30, and 60 min by the addition of 320 µL of ice-cold acetonitrile containing the internal standard. Incubation mixtures were then centrifuged at 910× g for 10 min and the supernatant was analyzed by the LC-ESI/MS/MS method described below for quantitation of LW6 and APA.

Stability in mouse serum = type: in vitro ADME
Experimental: All incubations were conducted in triplicate at 37 °C in eight-well tube strips placed in an 8 × 12 rack (VWR, Emeryville, CA, USA) with 50 µL of mouse serum in each tube. LW6 (1 mM) dissolved in acetonitrile was added to a final concentration of […] (1% acetonitrile) to initiate the study. The reaction was terminated at 0, 1, 2, 4, and 6 h by adding 150 µL of ice-cold acetonitrile containing the internal standard. The eight-well cluster tube plate was centrifuged at 910× g for 10 min and the supernatant was analyzed by the LC-ESI/MS/MS method described below for quantitation of LW6 and APA.

[3] = Stability in phosphate buffer at physiological pH; type: physicochemical; conditions: data not shown
in vitro = conditions: human
HIF-1α = conditions: cited from earlier work
[4] = mouse, plasma, 5 mg/kg, plasma, analyte = label, after single i.v. dose of LW6 5 mg/kg, male ICR mice, read-out: t1/2 (terminal) (converted)
[5] = mouse, plasma, analyte = label, after single i.v. dose of LW6 5 mg/kg, male ICR mice
[6] = mouse, plasma, analyte = label, after single p.o. dose of LW6 5 mg/kg, male ICR mice
[7] = mouse, plasma, analyte = label, after single p.o. dose of LW6 5 mg/kg, male ICR mice, n = 5
[8] = plasma, analyte = label, after single i.v. dose of LW6 5 mg/kg, male ICR mice
[9] = plasma, analyte = label, after single p.o. dose of LW6 5 mg/kg, male ICR mice
[10] = single i.v. dose of APA 5 mg/kg, male ICR mice, n = 5
[11] = Caco-2, pH 7.4, Typical apparent permeability coefficient (Papp) values

half-life [1, 4]: 2.7 ± 0.2 h | Vd ([1]; mouse, plasma, 5 mg/kg, single i.v. dose of APA 5 mg/kg, male ICR mice, n = 5, read-out: Vss): 0.4 ± 0.1 L/kg | Vd ([1]; mouse, plasma, 5 mg/kg, single i.v. dose of APA 5 mg/kg, male ICR mice, n = 5, read-out: Vz): 0.5 ± 0.2 L/kg | half-life ([1]; mouse, plasma, 5 mg/kg, single i.v. dose of APA 5 mg/kg, male ICR mice, n = 5, read-out: t1/2 (converted)): 2.4 ± 0.4 h | MRT [1, 5]: 3.6 ± 0.2 h | clearance ([1]; mouse, plasma, single i.v. dose of APA 5 mg/kg, male ICR mice, n = 5, read-out: CL (converted)): 1.67 mL/min/kg | Cmax [1, 6]: 4240 ± 1260 ng/mL | Tmax [1, 7]: 0.7 ± 0.1 h | AUC0–inf [1, 8]: 17,759.9 ± 3194.1 ng/hr/mL | AUC0–t [1, 8]: 17,731.4 ± 3190.5 ng/hr/mL | AUC0–inf [1, 9]: 14,744.8 ± 5517.4 ng/hr/mL | AUC0–t [1, 9]: 14,615.3 ± 5507.8 ng/hr/mL | AUC0–inf [1, 10]: 39,624.7 ± 9502.30 ng/hr/mL | AUC0–t [1, 10]: 37,703.8 ± 10,162.9 ng/hr/mL | CL [1, 10]: 1.7 ± 0 mL/min/kg | APA depletion in mouse liver microsomes (in words) ([2]; APA 1 µM, 0.5 mg/mL microsomes, presence of NADPH (1 mM)): progressively decreased
Compound: O=C(O)COc1ccc(C23CC4CC(CC(C4)C2)C3)cc1 [APA, (4-adamantan-1-yl-phenoxy)acetic acid]
Tumor growth inhibition relative to the control group (HCT116 xenograft): up to 43.3%

Time beyond which plasma level was below the quantitation limit ([1]; after i.v. LW6 5 mg/kg): 4 h | Time beyond which plasma level was below the quantitation limit ([1]; after p.o. LW6 5 mg/kg): 1 h | half-life [1, 4]: 0.6 ± 0.1 h | Vd ([1]; mouse, plasma, 5 mg/kg, single i.v. dose of LW6 5 mg/kg, male ICR mice, read-out: Vss (volume of distribution at steady state)): 0.5 ± 0.1 L/kg | MRT [1, 5]: 0.3 h | clearance ([1]; mouse, plasma, single i.v. dose of LW6 5 mg/kg, male ICR mice, read-out: CL (systemic clearance) (converted)): 28.3 mL/min/kg | bioavailability ([1]; mouse, plasma, oral, LW6 5 mg/kg p.o. vs 5 mg/kg i.v., calculated using AUC0–t, male ICR mice, read-out: F (oral bioavailability)): 1.7 ± 1.8% | Cmax [1, 6]: 65.5 ± 47.3 ng/mL | Tmax [1, 7]: 0.3 ± 0.1 h | Decrease of plasma exposure of LW6 when administered orally ([1]; oral vs intravenous, 5 mg/kg): about 60 fold | AUC0–inf [1, 8]: 2957.1 ± 215.4 ng/h/mL | AUC0–t [1, 8]: 2949.3 ± 218.4 ng/h/mL | AUC0–t [1, 9]: 49.5 ± 52.5 ng/h/mL | Vz ([1]; single i.v. dose of LW6 5 mg/kg, male ICR mice): 1.6 ± 0.3 Lkg | half-life at 5 µM (Stability in mouse serum; ICR, mouse serum, 5 µM, up to 6 h, read-out: t1/2 of degradation in serum): > 6 h | Conversion to APA in mouse serum (in words) (Stability in mouse serum; LW6 5 µM): converted slowly to APA | Stability in phosphate buffer [3]: stable | Papp at 120 min, 5 µM (in vitro; Caco-2, pH 7.4, Papp): 2.1 ± 0.4 ×10⁻⁶ cm/s | LW6 remaining after 60 min microsomal incubation ([2]; 1 µM, 0.5 mg/mL microsomes, absence of NADPH): 63% | LW6 remaining after 60 min microsomal incubation ([2]; 1 µM, 0.5 mg/mL microsomes, presence of NADPH (1 mM)): 65% | t1/2 of conversion to APA in liver microsomes ([2]; 1 µM, 0.5 mg/mL mouse liver microsomes): > 1 h | half-life at 1 µM ([2]; mouse, pooled mouse liver microsomes, pH 7.4, as stated in abstract, read-out: t1/2 of degradation in mouse liver microsomes): > 1 h | Permeability across Caco-2 cell monolayers (in words) (Caco-2 cells): moderately permeable
Compound: COC(=O)c1ccc(O)c(NC(=O)COc2ccc(C34CC5CC(CC(C5)C3)C4)cc2)c1 [LW6]
Accumulation of HIF-1α (HIF-1α): inhibited | HIF-1α protein expression (HIF-1α; without affecting HIF-1β expression, via regulation of VHL): decreased

Papp at 120 min, 5 µM (in vitro; Caco-2, pH 7.4, Papp): 35.3 ± 0.6 ×10⁻⁶ cm/s | Papp at 120 min, 5 µM (in vitro; [11]): > 25 ×10⁻⁶ cm/s
Compound: COCCc1ccc(OCC(O)CNC(C)C)cc1 (stereo not shown) [Metoprolol, metoprolol]

Papp at 120 min, 5 µM (in vitro; Caco-2, pH 7.4, Papp): 0.8 ×10⁻⁶ cm/s | Papp at 120 min, 5 µM (in vitro; [11]): < 2 ×10⁻⁶ cm/s
Compound: CNC(=C[N+](=O)[O-])NCCSCc1ccc(CN(C)C)o1 [Ranitidine, ranitidine]
